Measured values reported in PubChem BioAssay AID1963848 (Molecular Pharmacology Branch, DTP, NCI, 2024).

System: 379773-124-R-J2-PDC spheroid viability
Assay: Anticancer human tumor 379773-124-R-J2-PDC patient-derived endometrial carcinoma cell line growth inhibition [POLQ]
Conditions: spheroids with HUVEC and MSC; for IC50: curve of first compound; for viability, T/C: stronger effect = lower value
Summary of the method: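 Three-cell-type spheroids modelling solid tumor plus stroma served as the readout system; POL inhibitors were tested individually and in combination, concentration ranges set by clinical Cmax where known.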

[1] = second compound 0.0316 µM, first compound 0.0316 µM
[2] = second compound 0.0316 µM, first compound 0.1 µM
[3] = second compound 0.0316 µM, first compound 0.316 µM
[4] = second compound 0.0316 µM, first compound 1 µM
[5] = second compound 0.0316 µM, first compound 3.16 µM
[6] = second compound 0.0316 µM, first compound 10 µM
[7] = second compound 0.1 µM, first compound 0.0316 µM
[8] = second compound 0.1 µM, first compound 0.1 µM
[9] = second compound 0.1 µM, first compound 0.316 µM
[10] = second compound 0.1 µM, first compound 1 µM
[11] = second compound 0.1 µM, first compound 3.16 µM
[12] = second compound 0.1 µM, first compound 10 µM
[13] = second compound 0.316 µM, first compound 0.0316 µM
[14] = second compound 0.316 µM, first compound 0.1 µM
[15] = second compound 0.316 µM, first compound 0.316 µM
[16] = second compound 0.316 µM, first compound 1 µM
[17] = second compound 0.316 µM, first compound 3.16 µM
[18] = second compound 0.316 µM, first compound 10 µM
[19] = second compound 1 µM, first compound 0.0316 µM
[20] = second compound 1 µM, first compound 0.1 µM
[21] = second compound 1 µM, first compound 0.316 µM
[22] = second compound 1 µM, first compound 1 µM
[23] = second compound 1 µM, first compound 3.16 µM
[24] = second compound 1 µM, first compound 10 µM
[25] = second compound 3.16 µM, first compound 0.0316 µM
[26] = second compound 3.16 µM, first compound 0.1 µM
[27] = second compound 3.16 µM, first compound 0.316 µM
[28] = second compound 3.16 µM, first compound 1 µM
[29] = second compound 3.16 µM, first compound 3.16 µM
[30] = second compound 3.16 µM, first compound 10 µM
[31] = second compound 10 µM, first compound 0.0316 µM
[32] = second compound 10 µM, first compound 0.1 µM
[33] = second compound 10 µM, first compound 0.316 µM
[34] = second compound 10 µM, first compound 1 µM
[35] = second compound 10 µM, first compound 3.16 µM
[36] = second compound 10 µM, first compound 10 µM
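Further: spheroids exposed to drugs for seven days before readout.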
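Wherever viability, T/C is given: percent viability relative to DMSO vehicle control taken as 100%.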

## CCCS(=O)(=O)Nc1ccc(F)c(C(=O)c2c[nH]c3ncc(-c4ccc(Cl)cc4)cc23)c1F + Nc1ccc(C#CCN(C(=O)Cc2ncc(C(F)(F)F)cc2C(F)(F)F)c2ccc(F)cc2)nn1
Second compound 0.0316 µM
  IC50: > 10 µM
Second compound 0.1 µM
  IC50: > 10 µM
Second compound 0.316 µM
  IC50: > 10 µM
Second compound 1 µM
  IC50: > 10 µM
Second compound 3.16 µM
  IC50: > 10 µM
Second compound 10 µM
  IC50: > 10 µM
[1]
  viability, T/C: 85.6%
[2]
  viability, T/C: 97.3%
[3]
  viability, T/C: 83.9%
[4]
  viability, T/C: 92%
[5]
  viability, T/C: 80.9%
[6]
  viability, T/C: 55.1%
[7]
  viability, T/C: 95.3%
[8]
  viability, T/C: 88.7%
[9]
  viability, T/C: 87.2%
[10]
  viability, T/C: 85.7%
[11]
  viability, T/C: 81.4%
[12]
  viability, T/C: 55%
[13]
  viability, T/C: 94.6%
[14]
  viability, T/C: 95.8%
[15]
  viability, T/C: 81%
[16]
  viability, T/C: 94.6%
[17]
  viability, T/C: 93.6%
[18]
  viability, T/C: 70.8%
[19]
  viability, T/C: 90.6%
[20]
  viability, T/C: 86.6%
[21]
  viability, T/C: 95.1%
[22]
  viability, T/C: 85.7%
[23]
  viability, T/C: 77.9%
[24]
  viability, T/C: 59.2%
[25]
  viability, T/C: 96.5%
[26]
  viability, T/C: 89.7%
[27]
  viability, T/C: 92.1%
[28]
  viability, T/C: 96.4%
[29]
  viability, T/C: 75.1%
[30]
  viability, T/C: 59.8%
[31]
  viability, T/C: 100%
[32]
  viability, T/C: 87.3%
[33]
  viability, T/C: 79.8%
[34]
  viability, T/C: 83.6%
[35]
  viability, T/C: 81.5%
[36]
  viability, T/C: 54.3%

## CCc1cc2c(N3CCc4c(cc(Cn5ccnc5)cc4-c4cn(C)nc4C(F)(F)F)C3=O)ccnc2c(OC)n1 + Nc1ccc(C#CCN(C(=O)Cc2ncc(C(F)(F)F)cc2C(F)(F)F)c2ccc(F)cc2)nn1
Second compound 0.0316 µM
  IC50: > 10 µM
Second compound 0.1 µM
  IC50: > 10 µM
Second compound 0.316 µM
  IC50: > 10 µM
Second compound 1 µM
  IC50: > 10 µM
Second compound 3.16 µM
  IC50: > 10 µM
Second compound 10 µM
  IC50: > 10 µM
[1]
  viability, T/C: 83.1%
[2]
  viability, T/C: 68.2%
[3]
  viability, T/C: 61.3%
[4]
  viability, T/C: 59.1%
[5]
  viability, T/C: 61.6%
[6]
  viability, T/C: 54.8%
[7]
  viability, T/C: 65.1%
[8]
  viability, T/C: 71.1%
[9]
  viability, T/C: 61.2%
[10]
  viability, T/C: 62.8%
[11]
  viability, T/C: 56.2%
[12]
  viability, T/C: 53.9%
[13]
  viability, T/C: 74.3%
[14]
  viability, T/C: 72.3%
[15]
  viability, T/C: 67%
[16]
  viability, T/C: 64.8%
[17]
  viability, T/C: 59.1%
[18]
  viability, T/C: 49.9%
[19]
  viability, T/C: 84.5%
[20]
  viability, T/C: 69%
[21]
  viability, T/C: 65.2%
[22]
  viability, T/C: 64.8%
[23]
  viability, T/C: 56%
[24]
  viability, T/C: 53.6%
[25]
  viability, T/C: 71.4%
[26]
  viability, T/C: 69.7%
[27]
  viability, T/C: 65.8%
[28]
  viability, T/C: 70.8%
[29]
  viability, T/C: 60%
[30]
  viability, T/C: 52.6%
[31]
  viability, T/C: 85.4%
[32]
  viability, T/C: 79.2%
[33]
  viability, T/C: 61.6%
[34]
  viability, T/C: 67.5%
[35]
  viability, T/C: 55%
[36]
  viability, T/C: 49.6%

## O=C(c1cc(Cc2n[nH]c(=O)c3ccccc23)ccc1F)N1CCN(C(=O)C2CC2)CC1 + Nc1ccc(C#CCN(C(=O)Cc2ncc(C(F)(F)F)cc2C(F)(F)F)c2ccc(F)cc2)nn1
Second compound 0.0316 µM
  IC50: 9.3 µM
Second compound 0.1 µM
  IC50: 8.88 µM
Second compound 0.316 µM
  IC50: > 10 µM
Second compound 1 µM
  IC50: 9.76 µM
Second compound 3.16 µM
  IC50: > 10 µM
Second compound 10 µM
  IC50: 9.98 µM
[1]
  viability, T/C: 87.2%
[2]
  viability, T/C: 93.1%
[3]
  viability, T/C: 82.5%
[4]
  viability, T/C: 89.9%
[5]
  viability, T/C: 87.8%
[6]
  viability, T/C: 47.5%
[7]
  viability, T/C: 85.1%
[8]
  viability, T/C: 94.2%
[9]
  viability, T/C: 94%
[10]
  viability, T/C: 83%
[11]
  viability, T/C: 91.1%
[12]
  viability, T/C: 45.5%
[13]
  viability, T/C: 89.8%
[14]
  viability, T/C: 90%
[15]
  viability, T/C: 92.7%
[16]
  viability, T/C: 91.3%
[17]
  viability, T/C: 82%
[18]
  viability, T/C: 50.6%
[19]
  viability, T/C: 95.1%
[20]
  viability, T/C: 100%
[21]
  viability, T/C: 94%
[22]
  viability, T/C: 85.2%
[23]
  viability, T/C: 83.1%
[24]
  viability, T/C: 48.4%
[25]
  viability, T/C: 88.1%
[26]
  viability, T/C: 88.7%
[27]
  viability, T/C: 84.7%
[28]
  viability, T/C: 93.2%
[29]
  viability, T/C: 89.8%
[30]
  viability, T/C: 52.2%
[31]
  viability, T/C: 87.8%
[32]
  viability, T/C: 89.2%
[33]
  viability, T/C: 89.3%
[34]
  viability, T/C: 96.5%
[35]
  viability, T/C: 84.5%
[36]
  viability, T/C: 49.5%

## O=c1[nH]cc(F)c(=O)[nH]1 + Nc1ccc(C#CCN(C(=O)Cc2ncc(C(F)(F)F)cc2C(F)(F)F)c2ccc(F)cc2)nn1
Second compound 0.0316 µM
  IC50: > 10 µM
Second compound 0.1 µM
  IC50: > 10 µM
Second compound 0.316 µM
  IC50: > 10 µM
Second compound 1 µM
  IC50: > 10 µM
Second compound 3.16 µM
  IC50: > 10 µM
Second compound 10 µM
  IC50: > 10 µM
[1]
  viability, T/C: 93.1%
[2]
  viability, T/C: 93%
[3]
  viability, T/C: 99.6%
[4]
  viability, T/C: 85.2%
[5]
  viability, T/C: 78.1%
[6]
  viability, T/C: 55.7%
[7]
  viability, T/C: 89.2%
[8]
  viability, T/C: 98.1%
[9]
  viability, T/C: 95.1%
[10]
  viability, T/C: 80.4%
[11]
  viability, T/C: 78.8%
[12]
  viability, T/C: 59.6%
[13]
  viability, T/C: 96.1%
[14]
  viability, T/C: 98.1%
[15]
  viability, T/C: 98.2%
[16]
  viability, T/C: 94.7%
[17]
  viability, T/C: 74.4%
[18]
  viability, T/C: 62%
[19]
  viability, T/C: 92.3%
[20]
  viability, T/C: 85.3%
[21]
  viability, T/C: 95.3%
[22]
  viability, T/C: 87.2%
[23]
  viability, T/C: 75.9%
[24]
  viability, T/C: 51.3%
[25]
  viability, T/C: 94.1%
[26]
  viability, T/C: 83%
[27]
  viability, T/C: 91.3%
[28]
  viability, T/C: 82.4%
[29]
  viability, T/C: 74.1%
[30]
  viability, T/C: 57.7%
[31]
  viability, T/C: 87.4%
[32]
  viability, T/C: 88.2%
[33]
  viability, T/C: 93.5%
[34]
  viability, T/C: 90.2%
[35]
  viability, T/C: 63.1%
[36]
  viability, T/C: 57.6%
